In patent publication US7709482B2, “Polycyclic heteroaryl substituted triazoles useful as Axl inhibitors” (Rigel Pharmaceuticals, Inc., priority 2006, dated 2010) one finds IC50 data, which are given here for ten compounds.

SMILES strings stand for the structures.

For one experiment, the target named is T1, Axl (Homo sapiens, UniProt P30530).
T1 construct: endogenous in cells; host or cells: HeLa cells
T1 sequence (P30530 26-894): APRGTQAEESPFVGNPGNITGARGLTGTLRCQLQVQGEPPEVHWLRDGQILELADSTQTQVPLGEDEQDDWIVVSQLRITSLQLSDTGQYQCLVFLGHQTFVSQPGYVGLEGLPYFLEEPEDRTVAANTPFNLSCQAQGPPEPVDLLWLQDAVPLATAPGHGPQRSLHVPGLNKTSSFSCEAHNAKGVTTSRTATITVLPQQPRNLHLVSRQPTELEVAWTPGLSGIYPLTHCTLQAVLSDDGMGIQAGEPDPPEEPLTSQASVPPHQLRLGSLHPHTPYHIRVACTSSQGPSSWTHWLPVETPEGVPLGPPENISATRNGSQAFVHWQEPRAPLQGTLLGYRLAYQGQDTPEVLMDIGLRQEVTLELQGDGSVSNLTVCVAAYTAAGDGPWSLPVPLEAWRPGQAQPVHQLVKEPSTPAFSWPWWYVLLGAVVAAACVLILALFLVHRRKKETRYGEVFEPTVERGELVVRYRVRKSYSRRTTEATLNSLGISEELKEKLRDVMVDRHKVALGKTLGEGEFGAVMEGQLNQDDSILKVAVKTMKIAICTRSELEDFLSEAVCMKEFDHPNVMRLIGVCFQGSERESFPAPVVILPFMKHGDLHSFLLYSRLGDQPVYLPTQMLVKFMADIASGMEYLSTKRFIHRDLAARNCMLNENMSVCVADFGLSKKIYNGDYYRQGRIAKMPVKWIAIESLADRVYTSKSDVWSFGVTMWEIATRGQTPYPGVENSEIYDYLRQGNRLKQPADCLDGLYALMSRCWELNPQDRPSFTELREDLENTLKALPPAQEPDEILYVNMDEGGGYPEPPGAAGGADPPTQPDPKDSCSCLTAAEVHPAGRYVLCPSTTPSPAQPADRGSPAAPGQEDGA
Kind of experiment: Phospho-Akt In-Cell Western Assay (inhibition of Axl activity after Axl-antibody cross-linking). It is filed as cell-based. Particulars: Hela cells, phospho-Akt chemiluminescence normalized to relative cell number; compounds of formula (Ia), Table 1; read-out: IC50. A digest of the protocol: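 Phospho-Akt was detected in formaldehyde-fixed cells by in-cell immunostaining with HRP chemiluminescence. Before fixation, HeLa cells kept 24 h in low-serum medium containing 500 ng/mL Axl/Fc received compound for 1 h at 37 °C, followed by 5-min Axl activation through antibody clustering.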
Turning to `Nc1nc(Nc2ccc3c(c2)CCCCO3)nn1-c1cc2c(nn1)-c1ccccc1CCC2` [Compound 89, 1-(6,7-dihydro-5H-benzo[6,7]cyclohepta[1,2-c]pyridazin-3-yl)-N^3-(2,3,4,5-tetrahydrobenzo[b]oxepin-7-yl)-1H-1,2,4-triazole-3,5-diamine], the IC50 is 1 to 10 µM.

For `Nc1nc(Nc2ccc(N3CCC(CN4CCCC4)CC3)c(F)c2)nn1-c1cc2c(nn1)-c1ccccc1SCC2` [Compound 125, 1-(6,7-dihydro-5H-benzo[2,3]thiepino[4,5-c]pyridazin-3-yl)-N^3-(3-fluoro-4-(4-(pyrrolidinylmethyl)-piperidinyl)phenyl)-1H-1,2,4-triazole-3,5-diamine], the IC50 was less than 1 µM.

As to `Nc1nc(Nc2ccc(N3CCN(C4CCCC4)CC3)c(F)c2)nn1-c1cc2c(nn1)-c1ccccc1CCC2` [Compound 107, 1-(6,7-dihydro-5H-benzo[6,7]cyclohepta[1,2-c]pyridazin-3-yl)-N^3-(3-fluoro-4-(4-cyclopentylpiperazinyl)-phenyl)-1H-1,2,4-triazole-3,5-diamine], the IC50 was less than 1 µM. The same measure, in the same setting: then `Nc1nc(Nc2ccc(N3CCC(CN4CCCC4)CC3)c(F)c2)nn1-c1cc2c(nn1)-c1ccccc1CCC2` [Compound 124, 1-(6,7-dihydro-5H-benzo[6,7]cyclohepta[1,2-c]pyridazin-3-yl)-N^3-(3-fluoro-4-(4-(pyrrolidinylmethyl)-piperidinyl)phenyl)-1H-1,2,4-triazole-3,5-diamine], with less than 1 µM.

Still in this experiment, the particulars now being: inhibition of Axl activity; Table 1, compounds of formula (Ia); read-out: IC50.
Regarding `Nc1nc(Nc2ccc3c(c2)CCC(NCC2CCCO2)CC3)nn1-c1cc2c(nn1)-c1ccccc1CCC2` (stereo not shown) [Compound 228, 1-(6,7-dihydro-5H-benzo[6,7]cyclohepta[1,2-c]pyridazin-3-yl)-N^3-(7-(tetrahydrofuran-2-ylmethyl)amino-6,7,8,9-tetrahydro-5H-benzo[7]annulene-2-yl)-1H-1,2,4-triazole-3,5-diamine], the IC50 was less than 1 µM. The same measure, in the same setting: then `Nc1nc(Nc2cnc3c(c2)CN(C2CCCC2)CCC3)nn1-c1cc2c(nn1)-c1ccccc1CCC2` [Compound 139, 1-(6,7-dihydro-5H-benzo[6,7]cyclohepta[1,2-c]pyridazin-3-yl)-N^3-(6-cyclopentyl-6,7,8,9-tetrahydro-5H-pyrido[3,2-c]azepin-3-yl)-1H-1,2,4-triazole-3,5-diamine], with greater than 20 µM; and `Nc1nc(Nc2ccc3c(c2)CCC(N2CC[C@@H](F)C2)CC3)nn1-c1cc2c(nn1)-c1ccccc1CCC2` (stereo partly drawn) [Compound 222, 1-(6,7-dihydro-5H-benzo[6,7]cyclohepta[1,2-c]pyridazin-3-yl)-N^3-(7-(3-(R)-fluoropyrrolidin-1-yl)-6,7,8,9-tetrahydro-5H-benzo[7]annulene-2-yl)-1H-1,2,4-triazole-3,5-diamine], with less than 1 µM; and `CCN(CC)CCC1CCCc2ccc(Nc3nc(N)n(-c4cc5c(nn4)-c4ccccc4CCC5)n3)cc2C1O` (stereo not shown) [Compound 208, 1-(6,7-dihydro-5H-benzo[6,7]cyclohepta[1,2-c]pyridazin-3-yl)-N^3-(8-diethylaminoethyl-9-hydroxy-6,7,8,9-tetrahydro-5H-benzo[7]annulene-2-yl)-1H-1,2,4-triazole-3,5-diamine], with 1 to 10 µM. Same read-out and setting: the same measure for `Nc1nc(Nc2ccc3c(c2)CCC(N2CCC(N4CCCC4)CC2)CC3)nn1-c1cc2c(nn1)-c1ccccc1CCC2` (stereo not shown) [Compound 232, 1-(6,7-dihydro-5H-benzo[6,7]cyclohepta[1,2-c]pyridazin-3-yl)-N^3-(7-(4-pyrrolidin-1-ylpiperidin-1-yl)-6,7,8,9-tetrahydro-5H-benzo[7]annulene-2-yl)-1H-1,2,4-triazole-3,5-diamine]: less than 1 µM. `Nc1nc(Nc2ccc3c(c2)CCC(=O)CC3)nn1-c1cc2c(nn1)-c1ccccc1CCC2` [Compound 223, 1-(6,7-dihydro-5H-benzo[6,7]cyclohepta[1,2-c]pyridazin-3-yl)-N^3-(7-oxo-6,7,8,9-tetrahydro-5H-benzo[7]annulene-2-yl)-1H-1,2,4-triazole-3,5-diamine]: the half-maximal inhibitory concentration (IC50) is less than 1 µM.
